{"source": "the supplement of paper PMC11061612", "key": {"[1]": {"system": "TE-4 (Esophageal Squamous Cell Carcinoma)", "assay": "Bliss excess, mean over the matrix (fraction); higher = more synergy", "outline": "(§1)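 Bliss excess equals the observed combination effect minus the expected value EA + EB − EA·EB, where EA and EB are the effects of each agent alone. Combination Emax is the second-highest inhibition within the matrix. Inhibition was scaled from CellTiter-Glo 2.0 luminescence, with 0 set by vehicle wells and 1 by blank wells, after 72 hours of two-drug dosing of cells plated in 1536-well plates.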"}, "[2]": {"system": "HCC-15 (Squamous Cell Lung Carcinoma)", "assay": "Bliss excess, mean over the matrix (fraction); higher = more synergy", "outline": "as §1"}, "[3]": {"system": "KYSE-410 (Esophageal Squamous Cell Carcinoma)", "assay": "Bliss excess, mean over the matrix (fraction); higher = more synergy", "outline": "as §1"}, "[4]": {"system": "MHH-PREB-1 (B-Cell Non-Hodgkin's Lymphoma)", "assay": "Bliss excess, mean over the matrix (fraction); higher = more synergy", "outline": "as §1"}, "[5]": {"system": "UMC-11 (Other Solid Carcinomas)", "assay": "Bliss excess, mean over the matrix (fraction); higher = more synergy", "outline": "as §1"}, "[6]": {"system": "CTB-1 (B-Cell Non-Hodgkin's Lymphoma)", "assay": "Bliss excess, mean over the matrix (fraction); higher = more synergy", "outline": "as §1"}, "[7]": {"system": "SW626 (Colorectal Carcinoma)", "assay": "combination Emax (second highest fraction inhibited in the dose matrix, 72 h); higher = more inhibition; extreme values may be limits of the assay", "outline": "as §1"}, "[8]": {"system": "TE-4 (Esophageal Squamous Cell Carcinoma)", "assay": "combination Emax (second highest fraction inhibited in the dose matrix, 72 h); higher = more inhibition; extreme values may be limits of the assay", "outline": "as §1"}, "[9]": {"system": "HCC-15 (Squamous Cell Lung Carcinoma)", "assay": "combination Emax (second highest fraction inhibited in the dose matrix, 72 h); higher = more inhibition; extreme values may be limits of the assay", "outline": "as §1"}, "[10]": {"system": "639-V (Bladder Carcinoma)", "assay": "combination Emax (second highest fraction inhibited in the dose matrix, 72 h); higher = more inhibition; extreme values may be limits of the assay", "outline": "as §1"}, "[11]": {"system": "CAL-51 (Breast Carcinoma)", "assay": "combination Emax (second highest fraction inhibited in the dose matrix, 72 h); higher = more inhibition; extreme values may be limits of the assay", "outline": "as §1"}, "[12]": {"system": "COLO-829 (Melanoma)", "assay": "combination Emax (second highest fraction inhibited in the dose matrix, 72 h); higher = more inhibition; extreme values may be limits of the assay", "outline": "as §1"}, "[13]": {"system": "OVCAR-8 (Ovarian Carcinoma)", "assay": "combination Emax (second highest fraction inhibited in the dose matrix, 72 h); higher = more inhibition; extreme values may be limits of the assay", "outline": "as §1"}, "[14]": {"system": "LB771-HNC (Head and Neck Carcinoma)", "assay": "combination Emax (second highest fraction inhibited in the dose matrix, 72 h); higher = more inhibition; extreme values may be limits of the assay", "outline": "as §1"}, "[15]": {"system": "NCI-H747 (Colorectal Carcinoma)", "assay": "combination Emax (second highest fraction inhibited in the dose matrix, 72 h); higher = more inhibition; extreme values may be limits of the assay", "outline": "as §1"}, "[16]": {"system": "KYSE-410 (Esophageal Squamous Cell Carcinoma)", "assay": "combination Emax (second highest fraction inhibited in the dose matrix, 72 h); higher = more inhibition; extreme values may be limits of the assay", "outline": "as §1"}, "[17]": {"system": "KARPAS-231 (B-Cell Non-Hodgkin's Lymphoma)", "assay": "combination Emax (second highest fraction inhibited in the dose matrix, 72 h); higher = more inhibition; extreme values may be limits of the assay", "outline": "as §1"}, "[18]": {"system": "MHH-PREB-1 (B-Cell Non-Hodgkin's Lymphoma)", "assay": "combination Emax (second highest fraction inhibited in the dose matrix, 72 h); higher = more inhibition; extreme values may be limits of the assay", "outline": "as §1"}, "[19]": {"system": "UMC-11 (Other Solid Carcinomas)", "assay": "combination Emax (second highest fraction inhibited in the dose matrix, 72 h); higher = more inhibition; extreme values may be limits of the assay", "outline": "as §1"}, "[20]": {"system": "CTB-1 (B-Cell Non-Hodgkin's Lymphoma)", "assay": "combination Emax (second highest fraction inhibited in the dose matrix, 72 h); higher = more inhibition; extreme values may be limits of the assay", "outline": "as §1"}}}
{"molecule": "CN(CCO)CC[C@H](CSc1ccccc1)Nc1ccc(S(=O)(=O)NC(=O)c2ccc(N3CCC([C@@H](O)c4ccccc4-c4ccc(Cl)cc4)CC3)cc2)cc1S(=O)(=O)C(F)(F)F", "note": "[AZD4320] + C[C@@H](Nc1cc(F)cc(F)c1)c1cc(C(=O)N(C)C)cc2c(=O)cc(N3CCOCC3)oc12 [AZD8186] (first compound max 1 µM, 7x7, partner max 3 µM)", "values": [{"measurement": "Bliss excess", "setting": "[1]", "result": 0.0296}, {"measurement": "Bliss excess", "setting": "[2]", "result": 0.0764}, {"measurement": "Bliss excess", "setting": "[3]", "result": 0.0209}, {"measurement": "Bliss excess", "setting": "[4]", "result": 0.0355}, {"measurement": "Bliss excess", "setting": "[5]", "result": -0.0356}, {"measurement": "Bliss excess", "setting": "[6]", "result": 0.0266}, {"measurement": "combination Emax", "setting": "[7]", "result": 0.651}, {"measurement": "combination Emax", "setting": "[8]", "result": 0.333}, {"measurement": "combination Emax", "setting": "[9]", "result": 0.96}, {"measurement": "combination Emax", "setting": "[10]", "result": 1}, {"measurement": "combination Emax", "setting": "[11]", "result": 0.443}, {"measurement": "combination Emax", "setting": "[12]", "result": 0.277}, {"measurement": "combination Emax", "setting": "[13]", "result": 0.57}, {"measurement": "combination Emax", "setting": "[14]", "result": 0.264}, {"measurement": "combination Emax", "setting": "[15]", "result": 0.511}, {"measurement": "combination Emax", "setting": "[16]", "result": 0.299}, {"measurement": "combination Emax", "setting": "[17]", "result": 1}, {"measurement": "combination Emax", "setting": "[18]", "result": 0.277}, {"measurement": "combination Emax", "setting": "[19]", "result": 0.375}, {"measurement": "combination Emax", "setting": "[20]", "result": 0.669}]}
